The results in this text go back to ChEMBL document CHEMBL1139191, “Discovery and biological evaluation of adamantyl amide 11beta-HSD1 inhibitors” (Bioorg Med Chem Lett, 2007).

Test [1] has as its target 11-beta-hydroxysteroid dehydrogenase 1 (Homo sapiens, UniProt P28845). Description: Inhibition of human 11beta-HSD1 expressed in HEK293 cells after 2 hrs by scintillation proximity assay. Format: cell-based. (In a scintillation proximity assay essentially only radioactivity close to the scintillant gives light.)
The target in test [2] is T1, 11-beta-hydroxysteroid dehydrogenase type 2 (Homo sapiens) (UniProt P80365).
T1 sequence (whole entry): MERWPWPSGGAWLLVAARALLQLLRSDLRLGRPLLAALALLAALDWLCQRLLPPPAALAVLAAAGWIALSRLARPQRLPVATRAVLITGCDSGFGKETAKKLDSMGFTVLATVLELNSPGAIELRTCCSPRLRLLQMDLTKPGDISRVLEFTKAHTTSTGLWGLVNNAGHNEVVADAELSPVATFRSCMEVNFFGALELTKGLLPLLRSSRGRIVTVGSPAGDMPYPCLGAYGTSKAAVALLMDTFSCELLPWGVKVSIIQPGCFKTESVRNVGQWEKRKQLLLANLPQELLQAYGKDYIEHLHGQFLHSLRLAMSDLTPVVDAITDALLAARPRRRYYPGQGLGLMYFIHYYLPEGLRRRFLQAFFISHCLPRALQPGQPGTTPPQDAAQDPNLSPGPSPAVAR
Put plainly: Inhibition of human 11beta-HSD2 at 10 uM by scintillation proximity assay.

Test [3] addresses 11-beta-hydroxysteroid dehydrogenase 1 (Mus musculus, UniProt P50172). Put plainly: Inhibition of mouse 11beta-HSD1 expressed in CHO cells after 4 hrs by scintillation proximity assay. The class given is cell-based.
Test [4] concerns Mus musculus. Description: Inhibition of HSD1 in C57BL/6 mouse liver at 10 mg/kg, ip. Format: functional. The settings on record: C57BL/6, Liver, route intraperitoneal.
In test [5] the test system is Mus musculus. Description: Inhibition of HSD1 in C57BL/6 mouse adipose tissue at 10 mg/kg, ip. The class given is functional. The settings on record: C57BL/6, Adipose tissue, route intraperitoneal.
For test [6], the system named is Mus musculus. Description: Inhibition of HSD1 in C57BL/6 mouse brain at 10 mg/kg, ip. The class given is functional. The settings on record: C57BL/6, Brain, route intraperitoneal.
Test [7] relates to Mus musculus. Description: Inhibition of HSD1 in C57BL/6 mouse kidney at 10 mg/kg, ip. The class given is functional. The settings on record: C57BL/6, Kidney, route intraperitoneal.

Chain of 11-beta-hydroxysteroid dehydrogenase 1 (Homo sapiens, UniProt P28845) (P28845 whole entry): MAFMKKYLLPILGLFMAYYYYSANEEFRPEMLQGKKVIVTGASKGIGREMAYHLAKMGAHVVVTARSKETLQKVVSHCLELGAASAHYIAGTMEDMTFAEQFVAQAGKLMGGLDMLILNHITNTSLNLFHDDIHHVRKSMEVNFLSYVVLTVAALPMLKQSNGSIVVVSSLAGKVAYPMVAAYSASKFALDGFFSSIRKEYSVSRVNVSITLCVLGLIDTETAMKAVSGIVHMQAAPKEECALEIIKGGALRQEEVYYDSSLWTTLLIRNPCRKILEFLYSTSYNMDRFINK
Chain of 11-beta-hydroxysteroid dehydrogenase 1 (Mus musculus, UniProt P50172) (P50172 whole entry): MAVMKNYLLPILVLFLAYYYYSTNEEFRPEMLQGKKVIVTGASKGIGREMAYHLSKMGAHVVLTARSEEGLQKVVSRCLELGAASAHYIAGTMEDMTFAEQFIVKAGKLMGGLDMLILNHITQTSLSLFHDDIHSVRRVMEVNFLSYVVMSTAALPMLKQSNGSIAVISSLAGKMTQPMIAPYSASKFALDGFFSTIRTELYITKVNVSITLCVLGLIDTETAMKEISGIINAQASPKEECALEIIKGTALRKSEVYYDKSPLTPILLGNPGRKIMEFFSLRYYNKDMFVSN

Broadly, the IC50 is the concentration needed to halve the response being measured. A lower IC50 goes with greater potency. As a reminder, the inhibition is how much of the control response was suppressed. Consider `O=C(N1CCN(S(=O)(=O)Cc2ccccc2)CC1)C12CC3CC(CC(C3)C1)C2`, for which, in test [1], the IC50 amounted to 13 µM. Also, the inhibition in test [2] stood at 39%.

The compound `CCN1CCN(C(=O)C2CCCCC2)CC1` showed an IC50 in test [1] of 53 µM. The compound further gave an inhibition in test [2] of 0%.

On to `CCN1CCN(C(=O)C23CC4CC(C2)CC(c2ccc(OC)cc2)(C4)C3)CC1`, for which, in test [1], the IC50 worked out at 0.6 µM. Moreover, the inhibition in test [2] came to 51%.

As for `O=C(N1CCC2CCCCC2C1)C12CC3CC(CC(C3)C1)C2` (stereo not given), the values for the IC50 in test [1] and in test [3] were 0.846 µM and 0.23 µM, respectively. In test [2], the inhibition came to 0%.

`O=C(N1CCN(Cc2ccncc2)CC1)C12CC3CC(CC(C3)C1)C2`: in test [1], the 50% inhibitory concentration (IC50) was determined as 7.2 µM. The same compound came in with an inhibition in test [2] of 0%.

Broadly, the inhibition in vivo is the percentage by which the read-out fell short of the control. High values mean strong suppression, low ones little suppression. For `Cc1ccc(C23CC4CC(CC(C(=O)N5CCN(C)CC5)(C4)C2)C3)cc1`, the IC50 in test [1] was found to be 0.08 µM; in test [3], 0.081 µM. Moreover, in test [2], the inhibition worked out at 0%. Moreover, the inhibition in vivo at 10 mg/kg in the test on Mus musculus [4] was 63%; with Mus musculus [5], 54%; in the test with Mus musculus [6] it was 39%; in the test with Mus musculus [7] it was 0%.

Regarding `Cc1ccc(C23CC4CC(CC(C(=O)N5CCN(S(=O)(=O)c6ccccc6)CC5)(C4)C2)C3)cc1`, in test [1], the IC50 worked out at 64 µM. For the same compound, the inhibition in test [2] turned out to be 48%.

In test [1], `CCN1CCN(C(=O)C2(c3ccc(F)cc3)CCCC2)CC1` showed an IC50 of 12 µM. In test [2], this compound yielded an inhibition of 0%.

In the case of `CCN1CCN(C(=O)CCC2CCCCC2)CC1`, the IC50 in test [1] stood at 48 µM. In test [2], the inhibition was found to be 0%.

Regarding `COCCN1CCN(C(=O)C23CC4CC(CC(C4)C2)C3)CC1`, the IC50 in test [1] came out at 12 µM. Further, the inhibition in test [2] came to 7%.

`CCN1CCN(C(=O)C23CC4CC(CC(O)(C4)C2)C3)CC1` came in with an IC50 in test [1] of 53 µM.

`Cc1ccc(C23CC4CC(CC(C(=O)N5CCN(C(=O)c6ccccc6)CC5)(C4)C2)C3)cc1`: the IC50 in test [1] stood at 36 µM. In test [2], this compound yielded an inhibition of 0%.

`COCCN1CCN(C(=O)C23CC4CC(C2)CC(c2ccc(C)cc2)(C4)C3)CC1` came in with an IC50 in test [1] of 2.1 µM. The inhibition in test [2] came out at 41%.

On to `O=C(N1CCCCC1)C12CC3CC(CC(O)(C3)C1)C2`, for which the IC50 in test [1] is 7.3 µM. This compound displayed an inhibition in test [2] of 9%.

In turn, `O=C(N1CCN(c2ccccc2)CC1)C12CC3CC(CC(C3)C1)C2` yielded an IC50 in test [1] above 100 µM. In test [2], this compound registered an inhibition of 0%.

As for `CN1CCN(C(=O)C23CC4CC(CC(C4)C2)C3)CC1`, half-maximal inhibition in test [1] (IC50) was put at 0.7 µM. The compound also displayed an inhibition in test [2] of 13%.

For `CCN1CCN(C(=O)CC2CCCCC2)CC1`, the IC50 in test [1] was above 100 µM. Moreover, the inhibition in test [2] came to 40%.

The compound `O=C(N1CCN(CCc2ccccc2)CC1)C12CC3CC(CC(C3)C1)C2` registered an IC50 in test [1] of 47 µM. For the same compound, the inhibition in test [2] came out at 0%.

Take `Cc1ccc(C23CC4CC(CC(C(=O)N5CCN(c6ccccc6)CC5)(C4)C2)C3)cc1`: the IC50 in test [1] was found to be 7.3 µM.

On to `O=C(N1CCCCC1)C12CC3CC(CC(C3)C1)C2`, for which the IC50 amounted to 0.193 µM in test [1] and 0.134 µM in test [3]. For the same compound, in test [2], the inhibition worked out at 0%.

Regarding `O=C(N1CCN(CCO)CC1)C12CC3CC(CC(C3)C1)C2`, the IC50 was found to be 1.47 µM in test [1] and 0.494 µM in test [3]. In test [2], this compound had an inhibition of 31%.

With `O=C(N1CCCC1)C12CC3CC(CC(C3)C1)C2`, in test [1], the IC50 is 0.498 µM. The inhibition in test [2] is 37%.

The compound `O=C(N1CCN(Cc2ccccc2)CC1)C12CC3CC(CC(C3)C1)C2` came in with an IC50 in test [1] of 7.2 µM. The same compound displayed an inhibition in test [2] of 7%.

`O=C(N1CCNCC1)C12CC3CC(CC(C3)C1)C2` showed an IC50 in test [1] of 8.2 µM. This compound also showed an inhibition in test [2] of 31%.

As for `CCN1CCN(C(=O)C23CC4CC(CC(Cc5ccccc5)(C4)C2)C3)CC1`, the IC50 in test [1] was 1 µM. In test [2], this compound yielded an inhibition of 0%.

Consider `N#CC(c1ccccc1)N1CCN(C(=O)C23CC4CC(CC(C4)C2)C3)CC1` (stereo not given), for which 24 µM corresponded to half-maximal inhibition in test [1] (IC50). Besides, the inhibition in test [2] was 39%.

`Cc1ccc(C23CC4CC(CC(C(=O)N5CCN(CCc6ccccc6)CC5)(C4)C2)C3)cc1`: the IC50 in test [1] came to 1.9 µM. Moreover, the inhibition in test [2] was 53%.

Turning to `CCN1CCN(C(=O)c2ccccc2)CC1`, the IC50 in test [1] is above 100 µM. The same compound displayed an inhibition in test [2] of 0%.

`O=C(C1C2CC3CC(C2)CC1C3)N1CCCCC1` (stereo not given) showed an IC50 in test [1] of 0.2 µM. Further, the inhibition in test [2] came out at 39%.

`Cc1ccc(C23CC4CC(CC(C(=O)N5CCN(S(=O)(=O)Cc6ccccc6)CC5)(C4)C2)C3)cc1` registered an IC50 in test [1] of 7.7 µM. Moreover, the inhibition in test [2] turned out to be 26%.

Compound `Cc1ccc(C23CC4CC(CC(C(=O)N5CCN(Cc6ccccc6)CC5)(C4)C2)C3)cc1` showed an IC50 in test [1] of 1.5 µM. The same compound displayed an inhibition in test [2] of 80%.

Regarding `CCN1CCN(C(=O)Cc2ccccc2)CC1`, the IC50 in test [1] turned out to be 7.2 µM. In test [2], this compound had an inhibition of 11%.

As to `CC(C)C(C#N)N1CCN(C(=O)C23CC4CC(CC(C4)C2)C3)CC1` (stereo not given), the IC50 in test [1] was 20 µM. Also, the inhibition in test [2] came out at 45%.

Take `CCN1CCN(C(=O)CC23CC4CC(CC(C4)C2)C3)CC1`: the IC50 in test [1] was found to be 4.1 µM. Further, in test [2], the inhibition is 1%.

On to `O=C(N1CCCc2ccccc21)C12CC3CC(CC(C3)C1)C2`, for which the IC50 was found to be 1.86 µM in test [1] and 0.481 µM in test [3]. In test [2], this compound showed an inhibition of 0%.

For `CCN1CCN(C(=O)C23CC4CC(CC(C4)C2)C3)CC1`, the values for the IC50 in test [1] and in test [3] were 0.756 µM and 0.3 µM, respectively. In test [2], this compound had an inhibition of 11%.

As to `CCN1CCN(C(=O)C2CCC(C(C)(C)C)CC2)CC1` (stereo not given), the IC50 turned out to be 20 µM in test [1] and 1.2 µM in test [3]. This compound registered an inhibition in test [2] of 0%.

In the case of `O=C(N1CCN(S(=O)(=O)c2ccccc2)CC1)C12CC3CC(CC(C3)C1)C2`, in test [1], the IC50 was above 100 µM. Besides, the inhibition in test [2] is 35%.

For `CCN1CCN(C(=O)C(C)(C)C)CC1`, the IC50 in test [1] is above 100 µM. The compound further returned an inhibition in test [2] of 0%.

In the case of `Cc1ccc(C23CC4CC(CC(C(=O)N5CCN(C(C#N)C(C)C)CC5)(C4)C2)C3)cc1` (stereo not given), the IC50 in test [1] was 10 µM. This compound returned an inhibition in test [2] of 56%.

The compound `CCN1CCN(C(=O)C2CC3CCC2C3)CC1` (stereo not given) returned an IC50 in test [1] of 44 µM. Also, in test [2], the inhibition is 0%.

`Cc1ccc(C23CC4CC(CC(C(=O)N5CCN(Cc6ccncc6)CC5)(C4)C2)C3)cc1` had a 50% inhibitory concentration (IC50) in test [1] of 8.1 µM. The same compound gave an inhibition in test [2] of 0%.

In test [1], `O=C(N1CCc2ccccc2C1)C12CC3CC(CC(C3)C1)C2` gave an IC50 of 5.6 µM.

`O=C(c1ccccc1)N1CCN(C(=O)C23CC4CC(CC(C4)C2)C3)CC1` registered a concentration for half-maximal inhibition (IC50) in test [1] above 100 µM. The compound further gave an inhibition in test [2] of 20%.

Compound `Cc1ccc(C23CC4CC(CC(C(=O)N5CCN(C(C#N)c6ccccc6)CC5)(C4)C2)C3)cc1` (stereo not given) displayed an IC50 in test [1] of 2.1 µM. The same compound registered an inhibition in test [2] of 48%.

Consider `CCN1CCN(C(=O)C2=C(C)c3ccccc3C2)CC1`, for which the IC50 in test [1] was 15 µM. The inhibition in test [2] was 0%.

The compound `CCN1CCN(C(=O)C2CC2)CC1` registered an IC50 in test [1] above 100 µM. Moreover, the inhibition in test [2] amounted to 0%.

For `Cc1ccc(C23CC4CC(CC(C(=O)N5CCN(CCO)CC5)(C4)C2)C3)cc1`, the results for the IC50 in test [1] and in test [3] were 0.498 µM and 0.043 µM, respectively. Further, the inhibition in test [2] worked out at 40%.
